Like-named read-outs stand apart in the source and are kept apart here.
Legend:
[1] = logP by HPLC, reverse-phase column (C 18), acidic range; format: physicochemical
Method: Temperature: 43° C. (a) Mobile phases for the determination in the acidic range: 0.1% aqueous phosphoric acid, acetonitrile; linear gradient from 10% acetonitrile to 90% acetonitrile—the corresponding data in Table 1 are labelled^a). […] Temperature: 43° C. (a) Mobile phases for the determination in the acidic range: 0.1% aqueous phosphoric acid, acetonitrile; linear gradient from 10% acetonitrile to 90% acetonitrile—the corresponding data in Table 2 are labelled^a).

weeds [2] = test: Pre-emergence test, weeds; format: in vivo; conditions: soil sprayed, rated after three weeks
Method: Pre-emergence Test Solvent: 5 parts by weight of acetone Emulsifier: 1 part by weight of alkylaryl polyglycol ether To produce a suitable preparation of active compound, 1 part by weight of active compound is mixed with the stated amount of solvent, the stated amount of emulsifier is added and the concentrate is diluted with water to the desired concentration. Seeds of the test plants are sown in normal soil. After about 24 hours, the soil is sprayed with the preparation of active compound such that the particuiar amount of active compound desired is applied per unit area. The concentration of the spray liquor is chosen so that the particular amount of active compound desired is applied in 1000 litres of water per hectare. After three weeks, the degree of damage to the plants is rated in % damage in comparison to the development of the untreated control. The figures denote: 0%=no effect (like untreated control) 100%=total destruction

weeds [3] = test: Post-emergence test, weeds; format: in vivo; conditions: plants of 5 to 15 cm sprayed, rated after three weeks
Method: (§1) Solvent: 5 parts by weight of acetone
(§2) Emulsifier: 1 part by weight of alkylaryl polyglycol ether
To produce a suitable preparation of active compound, 1 part by weight of active compound is mixed with the stated amount of solvent, the stated amount of emulsifier is added and the concentrate is diluted with water to the desired concentration.
Test plants of a height of 5 to 15 cm are sprayed with the preparation of active compound such that the particular amounts of active compound desired are applied per unit area. The concentration of the spray liquor is chosen so that the particular amounts of active compound are applied in 1000 l of water/ha.
(§3) After three weeks, the degree of damage to the plants is rated in % damage in comparison to the development of the untreated control.
0%=no effect (like untreated control)

[4] = test system: crop plants, such as, for example, maize; test: Pre-emergence test, crop plant tolerance; format: in vivo; conditions: rated after three weeks
Excerpt: as §1, §2
Seeds of the test plants are sown in normal soil.
as §3

[5] = a) acidic range: 0.1% aqueous phosphoric acid, acetonitrile, 43° C., Table 1

logP [1] | SMILES | activity against weeds (weeds [2]) | activity against weeds (weeds [3]) | tolerated by crop plants [4] | logP [1, 5] | also measured
 | CCOc1nn(Cc2cc(C(F)(F)F)ccc2C(=O)C(C#N)C(=O)C2CC2)c(=O)n1C1CC1 (stereo not drawn) [Example 1, 3-cyclopropyl-2-{2-[4-(cyclopropyl-3-ethoxy-5-oxo-4,5-dihydro-1H-1,2,4-triazol-1-yl)-methyl]4-trifluoromethyl-benzoyl}-3-oxo-propanenitrile] | strong activity | strong activity | tolerated well |  | chromatographic logP ([1]; reverse-phase HPLC column (C 18), determined at pH=2): 3.35
 | CSc1nn(Cc2cc(C(F)(F)F)ccc2C(=O)C(C#N)C(=O)C2CC2)c(=O)n1C1CC1 (stereo not drawn) [Example 2] | strong activity | strong activity | tolerated well | (IA) logP = 2.92^a) | 
 | CCOc1nn(Cc2cc(C(F)(F)F)ccc2C(=O)C(C#N)C(=O)C2CC2)c(=O)n1C (stereo not drawn) [Example 3] | strong activity | strong activity | tolerated well | (IA) logP = 3.03^a) | 
 | CSc1nn(Cc2cc(Br)ccc2C(=O)C(C#N)C(=O)C2CC2)c(=O)n1C (stereo not drawn) [Example 5] | strong activity | strong activity | tolerated well | (IA) logP = 2.83^a) | 
 | CCOc1nn(Cc2cc(Br)ccc2C(=O)C(C#N)C(=O)C2CC2)c(=O)n1C (stereo not drawn) [Example 6] | strong activity | strong activity | tolerated well | (IA) logP = 2.94^a) | 
(IA) logP = 2.28^a) | CN(C)c1nn(Cc2cc(F)ccc2C(=O)C(C#N)C(=O)C2CC2)c(=O)n1C (stereo not drawn) [Example 7] |  |  |  |  | 
(IA) logP = 2.56^a) | COc1nn(Cc2cc(F)ccc2C(=O)C(C#N)C(=O)C2CC2)c(=O)n1C1CC1 (stereo not drawn) [Example 8] |  |  |  |  | 
(IA) logP = 1.74^a) | CSc1nn(Cc2cc(S(C)(=O)=O)ccc2C(=O)C(C#N)C(=O)C2CC2)c(=O)n1C (stereo not drawn) [Example 9] |  |  |  |  | 
(IA) logP = 2.35^a) | Cc1nn(Cc2cc(C(F)(F)F)ccc2C(=O)C(C#N)C(=O)C2CC2)c(=O)n1C (stereo not drawn) [Example 10] |  |  |  |  | 
 | CCOc1nn(Cc2cc(C(F)(F)F)ccc2C(=O)O)c(=O)n1C [III-2, 5-ethoxy-4-methyl-2-(2-carboxy-5-trifluoromethyl-benzyl)-2,4-dihydro-3H-1,2,4-triazol-3-one] |  |  |  |  | chromatographic logP ([1]; reverse-phase HPLC column (C 18); a) acidic range, starting material of formula (III)): 2.18
 | Cn1c(C(F)(F)F)nn(Cc2c(Cl)ccc(C(=O)O)c2Cl)c1=O [III-3, 4-methyl-5-trifluoromethyl-2-(2,6-dichloro-3-carboxy-benzyl)-2,4-dihydro-3H-1,2,4-triazol-3-one] |  |  |  |  | melting point: 207 °C
 | CCOn1c(CC)nn(Cc2cc(C(F)(F)F)ccc2C(=O)c2c(C(=O)OC)noc2C2CC2)c1=O [IV-1, (5-cyclopropyl-3-methoxycarbonyl-isoxazol-4-yl)-[2-(4-ethoxy-3-ethyl-5-oxo-4,5-dihydro-[1,2,4]-triazol-1-yl-methyl)-4-trifluoromethyl-phenyl]-methanone] |  |  |  |  | chromatographic logP ([1]; reverse-phase HPLC column (C 18), determined at pH=2.3, starting material of formula (IV)): 3.56
